Reference: patent US12600796B2, “Constructs for chimeric antigen receptors” (Carisma Therapeutics Inc., priority 2020, dated 2026)

Key:
Human macrophages [1] = assay: Viability, CAR expression and M1/M2 markers of HER2 CAR mRNA-electroporated macrophages treated with interferons; format: cell-based; details: for M1 phenotype (based on CD86 expression): FIG. 121E; for M2 markers (based on CD163 expression): FIG. 121F
Procedure: Human macrophages were electroporated with HER2 CAR mRNA comprising m6AGCap1 and PsU modifications. Cells were cultured with cytokines that induce an M1 phenotype such as IFN-alpha, IFN-beta, IFN-gamma, IFN-gamma plus lipopolysaccharide (LPS), TNF-alpha, IL-6 or a STING ligand (STING-L) for up to 48 hours and then cytokines were washed off and fresh media was added. CAR expression and M1 marker expression were measured on days 2 and 7 after transfection. Fluorescent labeled HER2+ breast cancer cells (CRL2351) were co-cultured with HER2 CAR macrophages two days after the macrophages were transfected. Cancer cell growth was monitored via its fluorescence on an Incucyte® live imaging microscope every four hours. The Effector (CAR macrophage) to Target (cancer cell) ratio was 5:1.
Five different mRNA modifications were also tested to determine if interferon treatment differentially affected macrophages transfected with mRNA comprising different modifications. Human macrophages were electroporated with HER2 CAR mRNA comprising different mRNA modifications. CAR expression and M1 markers were detected by Flow Cytometry (Attune) on day four after electroporation. Day 4 CAR macrophage cells were then co-cultured with a Nuc-Light labeled, HER2+ breast cancer cell line (CRL2351) at an Effector (CAR macrophage) to Target (cancer cell) ratio of 5:1. Cancer cell growth was monitored via its fluorescence on an Incucyte® live imaging microscope every four hours.
Human macrophages were electroporated with 300 nM CAR mRNA comprising m6AGCap1 and PsU modifications. Cells were cultured with 20 ng/mL IFNs for 24 hours and then the cells were washed to remove cytokines. CAR expression was detected by Flow Cytometry (Attune) on day 2 after transfection. Cells were then co-cultured with a Nuc-Light labeled, HER2+ breast cancer cell line (CRL2351) at the Effector to Target ratio of 3:1. Cancer cell growth was monitored via its fluorescence on an Incucyte® live imaging microscope. CAR expression and M1 markers in macrophages were detected by Flow Cytometry (Attune) on day 7 after transfection.

[2] = test system: HER2+ breast cancer cells (CRL2351); assay: Cytokine secretion of interferon-treated HER2 CAR macrophages co-cultured with cancer cells (MSD); format: cell-based, human; details: E:T 3:1, supernatant at 48 hours; FIG. 126
Procedure: Human macrophages were electroporated with 150 nM HER2 CAR mRNA comprising m6AGCap1 and PsU modifications. HER2+ breast cancer cells (CRL2351) were co-cultured with CAR macrophages after the macrophages were transfected with the CAR mRNA at an Effector (CAR macrophage) to Target (cancer cell) ratio of 3:1. Supernatant was collected 48 hours after the cancer cells and macrophages were co-cultured and cytokine levels were measured using a Meso Scale Discovery (MSD) instrument.

Human macrophages [3] = assay: mCherry mRNA expression in transfected macrophages (Incucyte); format: cell-based; details: different doses, one day; FIG. 129
Procedure: Human macrophages were transfected with mCherry mRNA comprising m6AGCap1 and PsU or N1mPsU modifications and were then cultured for one day with different doses of IFN-γ. mCherry expression was monitored on an Incucyte® live imaging microscope.
In order to determine whether an RNaseL inhibitor could rescue IFN-γ-induced instability of transfected mRNA, human macrophages were treated with 1 μM sunitinib (an RNaseL inhibitor) two hours prior to the transfection of mCherry mRNA comprising m6AGCap1 and PsU modifications. Transfected cells were then cultured for one day with different dosages of IFN-γ. mCherry expression was monitored on an Incucyte® live imaging microscope.
The effect of another RNaseL inhibitor (RLI or ABCE1) was also tested to further validate the concept. Human macrophages were co-transfected with mRNA encoding mCherry comprising m6AGCap 1 and PsU modifications and with mRNA encoding ABCE1.

[4] = test system: CRL-2351 cells expressing nuclear GFP; assay: Tumor killing by macrophages and Her2-Zeta CAR macrophages primed with plate-coated agonist proteins (Incucyte); format: cell-based, human; details: plate-coated protein, 3 h priming; FIGS. 5A, 6A, 7A
Procedure: (§1) To generate Her2-Zeta CAR expressing macrophages, primary human macrophages were suspended in EP buffer (MaxCyte) containing 300 nM mRNA (TriLink) at a concentration of 90×10^6 cells/mL. 100 μL of cell mixture was added to an electroporation cassette (OC100×2; MaxCyte) and electroporated using the Experimental T cell 1 setting. Cells were removed from the cassette, plated in 3 mL of TexMACS media (Miltenyi Biotech) containing 20% FBS (Gibco) on UpCell plates (Thermo Scientific), and incubated overnight at 37 C and 5% CO2.
(§2) Recombinant CD40 ligand (Peprotech), 4-1BB ligand (Enzo Life Sciences), and 4-1BB receptor (Peprotech) were resuspended in molecular grade water to a stock concentration of 100 μg/mL. Stock solution was then used to create working solutions in PBS ranging from 2-0.002 μg/mL. 100 uL of working solution was added to wells in a 96-well plate and left at room temperature for 4 h.
Plates were removed from the incubator and left at room temperature for 30 min. Cells were detached from plate, counted using the NC-200 automated cell counter (Chemomtech), and re-suspended in TexMACS media with 10% FBS. […] Cell lysis was detected using Incucyte® analysis (Essen Bioscience). Tumor cell death was calculated by integrated GFP intensity per well relative to time 0.

[5] = test system: primary human macrophages; assay: M1/M2 surface marker expression after priming with agonist proteins (flow cytometry); format: cell-based; details: mRNA CAR macrophages, 3 days on coated wells; FIGS. 5B, 6B, 7B
Procedure: as §1, §2
For detection of cell surface proteins, macrophages were plated onto wells coated with agonist molecules in a final volume of 200 uL TexMACS media+10% FBS+10 ng/mL GM-CSF and incubated for 3 days at 37 C and 5% CO2. Cells were incubated in 300 μL Accutase (Sigma) for 30 min and transferred to 96-well round bottom plate for staining. Cells were incubated in FACS buffer containing 20 μg/mL Her2-His for 20 min at RT, followed by incubation in Human TruStain FcX for 10 min at RT. […]

Row | Molecule | M1 phenotype (based on CD86 expression) (Human macrophages [1]) | M2 markers (based on CD163 expression) (Human macrophages [1]) | secretion of IL-6, IL-8 and TNFα [2] | mCherry mRNA expression (Human macrophages [3]) | tumor killing ability of macrophages and CAR macrophages [4] | M1 phenotype (M1 and M2 markers) [5]
1 | IFN-γ: interferon cytokine that induces an M1 phenotype | induction of an M1 phenotype | reduction of M2 markers | increased secretion of the cytokines IL-6, IL-8 and TNFα | reduced mCherry mRNA expression |  | 
2 | IFN-α | induction of an M1 phenotype | reduction of M2 markers | increased secretion of the cytokines IL-6, IL-8 and TNFα |  |  | 
3 | CD40L: Recombinant CD40 ligand (Peprotech), a CD40 agonist (protein, UniProt P29965 113-261, looked up) CD40 ligand, soluble form: MQKGDQNPQIAAHVISEASSKTTSVLQWAEKGYYTMSNNLVTLENGKQLTVKRQGLYYIYAQVTFCSNREASSQAPFIASLCLKSPGRFERILLRAANTHSSAKPCGQQSIHLGGVFELQPGASVFVNVTDPSQVSHGTGFTSFGLLKL |  |  |  |  | significantly improved the tumor killing ability | induced an M1 phenotype
